From patent EP4745151A1, “FIBROBLAST ACTIVATION PROTEIN LIGAND AND USE THEREOF” (Jiangsu Hengrui Pharmaceuticals Co., Ltd., priority 2023, dated 2025)
Read-outs that look alike come from different tables or passages of the source. Numbered stars: 1 amine (or outer) side, 2 acyl side, 3 side chain; on linkers, the order of the positions; unused ones are H or OH. Bridge positions count the residues as written; N and C are the ends. Square brackets hold non-standard residues; d marks the D form. Peptide text beside a SMILES is read from it. * marks the point of attachment. TBMB(SCH2CH2NH-DOTA) = O=C(O)CN1CCN(CC(=O)O)CCN(CC(=O)NCCSCc2cc(C[*:1])cc(C[*:2])c2)CCN(CC(=O)O)CC1; X1 = O=C(O)CN1CCN(CC(=O)O)CCN(CC(=O)NCCSCc2cc(C[*:1])cc(C[*:2])c2)CC1; Phe(2-CF3) = N[C@@H](Cc1ccccc1C(F)(F)F)C(=O)O; Pro(trans-4-F) = O=C(O)[C@@H]1C[C@@H](F)CN1; Phe(3-F) = N[C@@H](Cc1cccc(F)c1)C(=O)O; Phe(4-F) = N[C@@H](Cc1ccc(F)cc1)C(=O)O; Phe(2-F) = N[C@@H](Cc1ccccc1F)C(=O)O; Hyp = O=C(O)[C@@H]1C[C@@H](O)CN1; Hexanoyl = CCCCCC(=O)*; Aib = CC(C)(N)C(=O)O

Tests used:
[1] = system: U-87 MG cells; settings: mouse, in vivo; for Tumour/kidney: B-NDG, iv
Method: (§1) Experimental animals: Germline: B-NDG (Biocytogen Jiangsu Co., Ltd.); Age: 5-8 weeks old; Body weight: 20-24 g.
(§2) A sufficient quantity of U-87 MG cells was prepared and inoculated into the posterior position of the right forelimb of B-NDG mice in an inoculation volume of 100 µl, containing 50% Matrigel and 5 × 10^6 cells. After inoculation, the tumour volume and animal body weight were monitored twice a week. Model mice with a tumour volume between 200 and 500 m^3 were selected for enrolment in this experiment and randomly grouped on the basis of tumour volume.

[2] = biological target: T1, FAPα (Homo sapiens, UniProt Q12884); experiment: FAPα enzyme activity test; assay type: biochemical; settings: substrate Z-Gly-Pro-AMC, 37°C
T1 sequence (Q12884 1-760): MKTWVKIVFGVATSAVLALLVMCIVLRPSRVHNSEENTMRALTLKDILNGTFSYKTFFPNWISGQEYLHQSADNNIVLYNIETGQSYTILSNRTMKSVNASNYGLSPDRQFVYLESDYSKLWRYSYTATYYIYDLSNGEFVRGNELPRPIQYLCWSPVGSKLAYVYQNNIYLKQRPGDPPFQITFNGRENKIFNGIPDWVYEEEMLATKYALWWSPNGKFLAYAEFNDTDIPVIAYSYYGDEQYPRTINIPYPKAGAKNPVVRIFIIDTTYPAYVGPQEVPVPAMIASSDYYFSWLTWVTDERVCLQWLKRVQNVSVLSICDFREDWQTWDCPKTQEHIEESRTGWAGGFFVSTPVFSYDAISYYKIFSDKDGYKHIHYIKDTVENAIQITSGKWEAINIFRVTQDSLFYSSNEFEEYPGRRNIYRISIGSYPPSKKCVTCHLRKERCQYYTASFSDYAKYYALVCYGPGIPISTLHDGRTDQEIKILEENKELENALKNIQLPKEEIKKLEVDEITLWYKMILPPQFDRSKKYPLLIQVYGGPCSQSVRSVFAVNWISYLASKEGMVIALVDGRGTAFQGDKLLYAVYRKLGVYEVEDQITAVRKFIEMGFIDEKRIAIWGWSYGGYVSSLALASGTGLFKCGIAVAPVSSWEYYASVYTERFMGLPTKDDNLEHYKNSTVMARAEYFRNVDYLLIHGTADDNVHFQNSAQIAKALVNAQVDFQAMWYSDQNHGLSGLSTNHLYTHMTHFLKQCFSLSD
Method: The substrate (Z-Gly-Pro-AMC) was diluted with DMSO to prepare a 0.5 mM stock solution. Before each experiment, the 0.5 mM stock solution was diluted with PBS to 50 µM for later use. The FAPα protein was diluted with PBS to 0.5 ng/µl for later use. […] The test compounds and positive control were subjected to a 5-fold serial dilution with PBS to obtain 8 gradients for later use, with the highest concentration being 10 µM, and the lowest concentration being […]. Test method: 85 µl of the FAPα dilution and 10 µl of the compound dilution were added to a microplate, uniformly mixed and incubated at 37°C for 10 min. Then, 5 µl of 50 µM substrate was added, uniformly mixed and incubated at 37°C for 10 min. The microplate was read on a microplate reader, with an excitation wavelength of 380 nm and an emission wavelength of 465 nm.

[3] = in vivo; settings: B-NDG, mouse, iv, total radioactivity, Tumour/kidney
Method: as §1, §2

CCCCCC(=O)N[C@H]1CSCc2cc(CSCCNC(=O)CN3CCN(CC(=O)O)CCN(CC(=O)O)CC3)cc(c2)CSC[C@@H](C(=O)O)NC(=O)[C@H](Cc2ccccc2)NC(=O)[C@H](CCC(N)=O)NC(=O)[C@H]([C@@H](C)O)NC(=O)[C@@H]2CCCN2C(=O)[C@@H]2CCCN2C1=O [Al^18F-NOTA-2286, reference compound]
Tumour/kidney ([1]; 0.5 h): 2.57±0.09 | Tumour/kidney ([1]; 1.5 h): 11.24±1.79 | Tumour/kidney ([1]; 3 h): 10.06±1.60

CCCCCC(=O)N[C@H]1CSCc2cc(CSCCNC(=O)CN3CCN(CC(=O)O)CCN(CC(=O)O)CCN(CC(=O)O)CC3)cc(c2)CSC[C@@H](C(=O)O)NC(=O)[C@H](Cc2ccccc2)NC(=O)[C@H](CCC(N)=O)NC(=O)[C@H]([C@@H](C)O)NC(=O)[C@@H]2C[C@@H](O)CN2C(=O)[C@@H]2CCCN2C(=O)C(C)(C)NC1=O [DOTA-05] (Hexanoyl-C[Aib]P[Hyp]TQFC-OH; linker 1-8 via TBMB(SCH2CH2NH-DOTA))
IC50 [2]: 1.16 nM

CCCCCC(=O)N[C@H]1CSCc2cc(CSCCNC(=O)CN3CCN(CC(=O)O)CCN(CC(=O)O)CCN(CC(=O)O)CC3)cc(c2)CSC[C@@H](C(=O)O)NC(=O)[C@H](Cc2ccccc2F)NC(=O)[C@H](CCC(N)=O)NC(=O)[C@H]([C@@H](C)O)NC(=O)[C@@H]2C[C@@H](O)CN2C(=O)[C@@H]2CCCN2C(=O)C(C)(C)NC1=O [DOTA-06] (Hexanoyl-C[Aib]P[Hyp]TQ[Phe(2-F)]C-OH; linker 1-8 via TBMB(SCH2CH2NH-DOTA))
IC50 [2]: 0.93 nM

CCCCCC(=O)N[C@H]1CSCc2cc(CSCCNC(=O)CN3CCN(CC(=O)O)CCN(CC(=O)O)CCN(CC(=O)O)CC3)cc(c2)CSC[C@@H](C(=O)O)NC(=O)[C@H](Cc2cccc(F)c2)NC(=O)[C@H](CCC(N)=O)NC(=O)[C@H]([C@@H](C)O)NC(=O)[C@@H]2C[C@@H](O)CN2C(=O)[C@@H]2CCCN2C(=O)C(C)(C)NC1=O [DOTA-07] (Hexanoyl-C[Aib]P[Hyp]TQ[Phe(3-F)]C-OH; linker 1-8 via TBMB(SCH2CH2NH-DOTA))
IC50 [2]: 1.5 nM

CCCCCC(=O)N[C@H]1CSCc2cc(CSCCNC(=O)CN3CCN(CC(=O)O)CCN(CC(=O)O)CCN(CC(=O)O)CC3)cc(c2)CSC[C@@H](C(=O)O)NC(=O)[C@H](Cc2ccc(F)cc2)NC(=O)[C@H](CCC(N)=O)NC(=O)[C@H]([C@@H](C)O)NC(=O)[C@@H]2C[C@@H](O)CN2C(=O)[C@@H]2CCCN2C(=O)C(C)(C)NC1=O [DOTA-08] (Hexanoyl-C[Aib]P[Hyp]TQ[Phe(4-F)]C-OH; linker 1-8 via TBMB(SCH2CH2NH-DOTA))
IC50 [2]: 0.53 nM

CCCCCC(=O)N[C@H]1CSCc2cc(CSCCNC(=O)CN3CCN(CC(=O)O)CCN(CC(=O)O)CCN(CC(=O)O)CC3)cc(c2)CSC[C@@H](C(=O)O)NC(=O)[C@H](Cc2ccccc2C(F)(F)F)NC(=O)[C@H](CCC(N)=O)NC(=O)[C@H]([C@@H](C)O)NC(=O)[C@@H]2C[C@@H](O)CN2C(=O)[C@@H]2CCCN2C(=O)C(C)(C)NC1=O [DOTA-09] (Hexanoyl-C[Aib]P[Hyp]TQ[Phe(2-CF3)]C-OH; linker 1-8 via TBMB(SCH2CH2NH-DOTA))
IC50 [2]: 0.28 nM

CCCCCC(=O)N[C@H]1CSCc2cc(CSCCNC(=O)CN3CCN(CC(=O)O)CCN(CC(=O)O)CCN(CC(=O)O)CC3)cc(c2)CSC[C@@H](C(=O)O)NC(=O)[C@H](Cc2ccccc2)NC(=O)[C@H](CCC(N)=O)NC(=O)[C@H]([C@@H](C)O)NC(=O)[C@@H]2C[C@@H](F)CN2C(=O)[C@@H]2CCCN2C(=O)C(C)(C)NC1=O [DOTA-12] (Hexanoyl-C[Aib]P[Pro(trans-4-F)]TQFC-OH; linker 1-8 via TBMB(SCH2CH2NH-DOTA))
IC50 [2]: 1.08 nM

CCCCCC(=O)N[C@H]1CSCc2cc(CSCCNC(=O)CN3CCN(CC(=O)O)CCN(CC(=O)O)CCN(CC(=O)O)CC3)cc(c2)CSC[C@@H](C(=O)O)NC(=O)[C@H](Cc2ccccc2F)NC(=O)[C@H](CCC(N)=O)NC(=O)[C@H]([C@@H](C)O)NC(=O)[C@@H]2C[C@@H](F)CN2C(=O)[C@@H]2CCCN2C(=O)C(C)(C)NC1=O [DOTA-13] (Hexanoyl-C[Aib]P[Pro(trans-4-F)]TQ[Phe(2-F)]C-OH; linker 1-8 via TBMB(SCH2CH2NH-DOTA))
IC50 [2]: 1.09 nM

CCCCCC(=O)N[C@H]1CSCc2cc(CSCCNC(=O)CN3CCN(CC(=O)O)CCN(CC(=O)O)CCN(CC(=O)O)CC3)cc(c2)CSC[C@@H](C(=O)O)NC(=O)[C@H](Cc2ccccc2)NC(=O)[C@H](CCC(N)=O)NC(=O)[C@H]([C@@H](C)O)NC(=O)[C@@H]2CCCN2C(=O)[C@@H]2CCCN2C1=O [FAP-2286, reference compound]
IC50 [2]: 11.7 nM

CCCCCC(=O)N[C@H]1CSCc2cc(CSCCNC(=O)CN3CCN(CC(=O)O)CCN(CC(=O)O)CC3)cc(c2)CSC[C@@H](C(=O)O)NC(=O)[C@H](Cc2ccccc2)NC(=O)[C@H](CCC(N)=O)NC(=O)[C@H]([C@@H](C)O)NC(=O)[C@@H]2C[C@@H](O)CN2C(=O)[C@@H]2CCCN2C(=O)C(C)(C)NC1=O [NOTA-05] (Hexanoyl-C[Aib]P[Hyp]TQFC-OH; linker 1-8 via X1)
IC50 [2]: 0.45 nM

CCCCCC(=O)N[C@H]1CSCc2cc(CSCCNC(=O)CN3CCN(CC(=O)O)CCN(CC(=O)O)CC3)cc(c2)CSC[C@@H](C(=O)O)NC(=O)[C@H](Cc2ccccc2F)NC(=O)[C@H](CCC(N)=O)NC(=O)[C@H]([C@@H](C)O)NC(=O)[C@@H]2C[C@@H](O)CN2C(=O)[C@@H]2CCCN2C(=O)C(C)(C)NC1=O [NOTA-06] (Hexanoyl-C[Aib]P[Hyp]TQ[Phe(2-F)]C-OH; linker 1-8 via X1)
IC50 [2]: 0.088 nM

CCCCCC(=O)N[C@H]1CSCc2cc(CSCCNC(=O)CN3CCN(CC(=O)O)CCN(CC(=O)O)CC3)cc(c2)CSC[C@@H](C(=O)O)NC(=O)[C@H](Cc2ccccc2)NC(=O)[C@H](CCC(N)=O)NC(=O)[C@H]([C@@H](C)O)NC(=O)[C@@H]2CCCN2C(=O)[C@@H]2CCCN2C1=O [NOTA-2286, reference compound]
IC50 [2]: 0.59 nM

CCCCCC(=O)N[C@H]1CSCc2cc(CSCCNC(=O)CN3CCN(CC(=O)O)CCN(CC(=O)O)CCN(CC(=O)O)CC3)cc(c2)CSC[C@@H](C(=O)O)NC(=O)[C@H](Cc2ccccc2C(F)(F)F)NC(=O)[C@H](CCC(N)=O)NC(=O)[C@H]([C@@H](C)O)NC(=O)[C@@H]2C[C@@H](O)CN2C(=O)[C@@H]2CCCN2C(=O)C(C)(C)NC1=O [^68Ga-DOTA-09, metal not drawn] (Hexanoyl-C[Aib]P[Hyp]TQ[Phe(2-CF3)]C-OH; linker 1-8 via TBMB(SCH2CH2NH-DOTA))
tumour uptake compared with control [1]: significantly higher | tumour/kidney ratio compared with control [1]: significantly higher | tumour/kidney uptake ratio compared with control [1]: significantly higher | tissue to tissue ratio at 0.5 h [3]: 2.81 ± 0.21 | tissue to tissue ratio at 1.5 h [3]: 5.34 ± 0.92

CCCCCC(=O)N[C@H]1CSCc2cc(CSCCNC(=O)CN3CCN(CC(=O)O)CCN(CC(=O)O)CCN(CC(=O)O)CC3)cc(c2)CSC[C@@H](C(=O)O)NC(=O)[C@H](Cc2ccccc2)NC(=O)[C@H](CCC(N)=O)NC(=O)[C@H]([C@@H](C)O)NC(=O)[C@@H]2CCCN2C(=O)[C@@H]2CCCN2C1=O [^68Ga-FAP-2286, metal not drawn]
tissue to tissue ratio at 1 h [3]: 1.56 ± 0.11 | tissue to tissue ratio at 3 h [3]: 0.87 ± 0.14

CCCCCC(=O)N[C@H]1CSCc2cc(CSCCNC(=O)CN3CCN(CC(=O)O)CCN(CC(=O)O)CC3)cc(c2)CSC[C@@H](C(=O)O)NC(=O)[C@H](Cc2ccccc2)NC(=O)[C@H](CCC(N)=O)NC(=O)[C@H]([C@@H](C)O)NC(=O)[C@@H]2CCCN2C(=O)[C@@H]2CCCN2C1=O [^68Ga-NOTA-2286, metal not drawn, reference compound]
Tumour/kidney ([1]; 1.5 h): 1.77±0.31 | Tumour/kidney ([1]; 3 h): 2.43±1.04 | tissue to tissue ratio at 0.5 h [3]: 1.59 ± 0.55
